Values quoted from earlier work as cited in patent publication US11433058B2, “Non-pulsatile prolonged-release betahistine oral solid compositions” (INTAS PHARMACEUTICALS LTD., priority 2017, dated 2022).
Structures can show the parent of a compound that is named as a salt.

Key:
[1] = per WO2014001267
[2] = oral; immediate release tablet or orodispersible tablet (Betaserc SmPC)

water solubility [1] | absolute bioavailability [2] | SMILES
49.3 mg/mL |  | CNCCc1ccccn1 [Betahistine dihydrochloride]
 | about 99% | O=C(O)Cc1ccccn1 [Example 2-PAA, 2-pyridylacetic acid]
